EC50, Emax and inhibition data for 20 compounds are collected here from patent US10604512B2, “3-(1H-indol-2-yl)-1H-indazoles and therapeutic uses thereof” (Samumed, LLC, priority 2015, dated 2020).

One test has as its system IL-6. As to the kind of experiment: Inhibition of IL-6 in LPS-stimulated THP-1 human monocyte cells (HTRF). It counts as cell-based. Conditions: for EC50: IL-6 inhibition, LPS-stimulated THP-1 cells, HTRF; for inhibition at 10 µM: THP-1, printed beside >10 μM EC50, top concentration 10 μM, meaning not given, read-out: percentage in parentheses after EC50 >10. In short, it runs like this: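 THP-1 cells serum-reduced (1% FBS, 24 h), then 5000 cells/well preincubated 2 h with compound (10-point 1:3 series from 10 μM, 0.1% DMSO) before 500 ng/mL LPS for 22 h at 37 °C. Secreted IL-6 quantified by HTRF 665/620 ratio; DMSO-normalised duplicates fitted to four-parameter EC50; above 10 μM, % inhibition at 10 μM given.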

The subject of test [1] is primary human mesenchymal stem cells (hMSCs). The experiment in a line: Induction of chondrogenesis in primary human mesenchymal stem cells (nodule imaging, Rhodamine B / Nile Red). The note with it: for EC50: concentration required to induce 50% levels of chondrogenesis vs TGF-β3 positive control, read-out: Conc (nM) of 50% TGF-β3 activity; for Emax: maximum chondrogenesis activity relative to TGF-β3 (10 ng/mL) positive control, read-out: Max. Activity as % TGF-β3 activity. It is filed as cell-based. How it is done:
Representative compounds were screened using primary human mesenchymal stem cells (hMSCs) to determine their ability to induce chondrogenesis (process by which cartilage is developed).
Primary human mesenchymal stem cells (hMSCs) were purchased from Lonza (Walkersville, Md.) and expanded in Mesenchymal Stem Cell Growth Media (Lonza). Cells between passage 3 and 6 were used for the experiments.
Each compound was dissolved in DMSO as a 10 mM stock and used to prepare compound source plates. For the 96 well assay, serial dilution (1:3, 6-point dose-response curves from 2700 nM to 10 nM) and compound transfer was performed using the ECHO 550 (Labcyte, Sunnyvale, Calif.) into 96-well clear bottom assay plates (Greiner Bio-One) with appropriate DMSO backfill for a final DMSO concentration of 0.03%. hMSCs were plated at 20,000 cells/well in 250 μL/well Incomplete Chondrogenic Induction Medium (Lonza; DMEM, dexamethasone, ascorbate, insulin-transferrin-selenium [ITS supplement], gentamycin-amphotericin [GA-1000], sodium pyruvate, proline and L-glutamine). TGF-β3 (10 ng/mL) was used as a positive control for differentiation while negative control wells were treated with 75 nL DMSO for normalization and calculating EC50 values. For the 384 well assay, serial dilution (1:3, 8-point dose-response curves from 5000 nM to 2.2 nM) and compound transfer was performed using the ECHO 550 (Labcyte, Sunnyvale, Calif.) into 384-well clear bottom assay plates (Greiner Bio-One) with appropriate DMSO backfill for a final DMSO concentration of 0.03%. hMSCs were plated at 8,000 cells/well in 80 μL/well Incomplete Chondrogenic Induction Medium (Lonza; DMEM, dexamethasone, ascorbate, insulin-transferrin-selenium [ITS supplement], gentamycin-amphotericin [GA-1000], sodium pyruvate, proline and L-glutamine). TGF-β3 (10 ng/mL) was used as a positive control for differentiation while negative control wells were treated with 25 nL DMSO for normalization and calculating EC50 values. Cells were incubated at 37° C. and 5% CO2 for 6 days. To image chondrogenic nodules, the cells were fixed using 4% formaldehyde (Electron Microscopy Sciences), and stained with 2 μg/mL Rhodamine B (Sigma-Aldrich) and 20 μM Nile Red (Sigma-Aldrich) [Johnson K., et. al, A Stem CellBased Approach to Cartilage Repair, Science, (2012), 336(6082), 717-721]. The nodules imaged (25 images per well for 96 well plates and 9 images per well for 384 well plates at 10× magnification) by excitation at 531 nm and emission at 625 nm and quantified using the CellInsight CX5 (Thermo Scientific). Area of nodules in each well was normalized to the average of 3 DMSO treated wells on the same plate using Excel (Microsoft Inc.). The normalized averages (fold change over DMSO) of 2 or 3 replicate wells for each compound concentration were calculated. Due to solubility limitations of some of the compounds, curve fitting was incomplete leading to inaccurate EC50 determinations.
Using TGF-β3 as a positive control, the concentration of representative compounds required to induce 50% levels of chondrogenesis is reported. In addition, the maximum activity of each compound and the respective dose that each compound reached maximum chondrogenesis activity is reported.

The structures appear in SMILES notation.

For `c1ccc(-c2cccc3[nH]c(-c4n[nH]c5ccc(-c6cncc(CN7CCCC7)c6)cc45)cc23)nc1` [Compound 154, 3-(4-(Pyridin-2-yl)-1H-indol-2-yl)-5-(5-(pyrrolidin-1-ylmethyl)pyridin-3-yl)-1H-indazole], in the test with IL-6, the EC50 was 750 nM. In test [1], the EC50 was 10 nM and the Emax was found to be 180%.
The compound `c1cncc(-c2ccc3[nH]nc(-c4cc5c(-c6cccnc6)cccc5[nH]4)c3c2)c1` [Compound 88, 5-(Pyridin-3-yl)-3-(4-(pyridin-3-yl)-1H-indol-2-yl)-1H-indazole] showed an EC50 with IL-6 of 23 nM. In test [1], the EC50 stood at 10 nM and the Emax worked out at 183%.
For the compound `Cc1ccncc1-c1ccc2[nH]nc(-c3cc4c(-c5ccncc5)cccc4[nH]3)c2c1` [Compound 117, 5-(4-Methylpyridin-3-yl)-3-(4-(pyridin-4-yl)-1H-indol-2-yl)-1H-indazole], in the test on IL-6, the EC50 was > 10000 nM and the inhibition at 10 µM came to 38.6%. In test [1], the EC50 stood at 10 nM and the Emax worked out at 190%.
In the test on IL-6, `CCNCc1cncc(-c2ccc3[nH]nc(-c4cc5ccccc5[nH]4)c3c2)c1` [Compound 258, N-((5-(3-(1H-Indol-2-yl)-1H-indazol-5-yl)pyridin-3-yl)methyl)ethanamine] came in with an EC50 of 161 nM. In addition, in test [1], the EC50 stood at 10 nM and the Emax is 532%.
For the compound `O=C(Nc1cncc(-c2ccc3[nH]nc(-c4cc5c(-c6ccncc6)cccc5[nH]4)c3c2)c1)C1CC1` [Compound 132, N-(5-(3-(4-(Pyridin-4-yl)-1H-indol-2-yl)-1H-indazol-5-yl)pyridin-3-yl) cyclopropanecarboxamide], the EC50 with IL-6 turned out to be 109 nM. Besides, in test [1], the EC50 was 10 nM and the Emax worked out at 219%.
For `CS(=O)(=O)NCc1cc(F)cc(-c2cccc3[nH]c(-c4n[nH]c5ccc(-c6cncnc6)cc45)cc23)c1` [Compound 503, N-(3-Fluoro-5-(2-(5-(pyrimidin-5-yl)-1H-indazol-3-yl)-1H-indol-4-yl)benzyl) methanesulfonamide] the same measures were 910 nM, 10 nM and 194%.
Turning to `CN(C)Cc1cncc(-c2ccc3[nH]nc(-c4cc5c(N6CCCCC6)cccc5[nH]4)c3c2)c1` [Compound 181, N,N-Dimethyl-1-(5-(3-(4-(piperidin-1-yl)-1H-indol-2-yl)-1H-indazol-5-yl)pyridin-3-yl)methanamine], in the test on IL-6, the EC50 was > 10000 nM and the inhibition at 10 µM amounted to 40.7%. In addition, in test [1], the EC50 stood at 10 nM and the Emax came out at 205%.
The compound `c1cncc(-c2cccc3[nH]c(-c4n[nH]c5ccc(-c6cncnc6)cc45)cc23)c1` [Compound 111, 3-(4-(Pyridin-3-yl)-1H-indol-2-yl)-5-(pyrimidin-5-yl)-1H-indazole] yielded an EC50 in the test with IL-6 of 3060 nM. Further, in test [1], the EC50 stood at 10 nM and the Emax was determined as 202%.
For `CCNCc1cncc(-c2ccc3[nH]nc(-c4cc5c(-c6ccncc6)cccc5[nH]4)c3c2)c1` [Compound 118, N-((5-(3-(4-(Pyridin-4-yl)-1H-indol-2-yl)-1H-indazol-5-yl)pyridin-3-yl)methyl)ethanamine], in that order: 137 nM, 30 nM and 199%.
For `CN(C)Cc1cncc(-c2ccc3[nH]nc(-c4cc5c(-c6cccs6)cccc5[nH]4)c3c2)c1` [Compound 349, N,N-Dimethyl-1-(5-(3-(4-(thiophen-2-yl)-1H-indol-2-yl)-1H-indazol-5-yl)pyridin-3-yl)methanamine], in that order: 233 nM, 30 nM and 181%.
For `c1ccc2[nH]c(-c3n[nH]c4ccc(-c5cncc(OCCN6CCCC6)c5)cc34)cc2c1` [Compound 686, 3-(1H-Indol-2-yl)-5-(5-(2-(pyrrolidin-1-yl)ethoxy)pyridin-3-yl)-1H-indazole] the same measures were 208 nM, 10 nM and 213%.
The compound `CN1CCN(c2cccc3[nH]c(-c4n[nH]c5ccc(-c6cncc(N)c6)cc45)cc23)CC1` [Compound 227, 5-(3-(4-(4-Methylpiperazin-1-yl)-1H-indol-2-yl)-1H-indazol-5-yl)pyridin-3-amine] had an EC50 with IL-6 of 1810 nM. Besides, in test [1], the EC50 was 100 nM and the Emax was 166%.
For `O=C(Nc1cncc(-c2ccc3[nH]nc(-c4cc5c(N6CCCCC6)cccc5[nH]4)c3c2)c1)C1CC1` [Compound 188, N-(5-(3-(4-(Piperidin-1-yl)-1H-indol-2-yl)-1H-indazol-5-yl)pyridin-3-yl) cyclopropanecarboxamide] the same measures were 5370 nM, 10 nM and 183%.
For `CC(C)C(=O)Nc1cncc(-c2ccc3[nH]nc(-c4cc5c(N6CCN(C)CC6)cccc5[nH]4)c3c2)c1` [Compound 233, N-(5-(3-(4-(4-Methylpiperazin-1-yl)-1H-indol-2-yl)-1H-indazol-5-yl)pyridin-3-yl)isobutyramide] the same measures were 589 nM, 100 nM and 196%.
As for `c1cncc(-c2cccc3[nH]c(-c4n[nH]c5ccc(-c6cncc(CN7CCCCC7)c6)cc45)cc23)c1` [Compound 99, 5-(5-(Piperidin-1-ylmethyl)pyridin-3-yl)-3-(4-(pyridin-3-yl)-1H-indol-2-yl)-1H-indazole], in the test with IL-6, the EC50 is > 10000 nM and the inhibition at 10 µM is 50.5%. In test [1], the EC50 is 10 nM and the Emax is 212%.
`CCC(=O)Nc1cncc(-c2ccc3[nH]nc(-c4cc5c(-c6cccnc6)cccc5[nH]4)c3c2)c1` [Compound 85, N-(5-(3-(4-(Pyridin-3-yl)-1H-indol-2-yl)-1H-indazol-5-yl)pyridin-3-yl) propionamide] showed an EC50 in the test with IL-6 of 204 nM. For the same compound, in test [1], the EC50 worked out at 10 nM and the Emax was determined as 197%.
For `FC1(F)CCN(Cc2cncc(-c3ccc4[nH]nc(-c5cc6c(N7CCCCC7)cccc6[nH]5)c4c3)c2)C1` [Compound 194, 5-(5-((3,3-Difluoropyrrolidin-1-yl)methyl)pyridin-3-yl)-3-(4-(piperidin-1-yl)-1H-indol-2-yl)-1H-indazole], in the test on IL-6, the EC50 was > 10000 nM and the inhibition at 10 µM was found to be 29.2%. In addition, in test [1], the EC50 is 30 nM and the Emax was 160%.
`c1ccc2[nH]c(-c3n[nH]c4ccc(-c5cncc(CN6CCCC6)c5)cc34)cc2c1` [Compound 266, 3-(1H-Indol-2-yl)-5-(5-(pyrrolidin-1-ylmethyl)pyridin-3-yl)-1H-indazole] returned an EC50 in the test with IL-6 of 233 nM. Also, in test [1], the EC50 worked out at 100 nM and the Emax came out at 217%.
For `c1cncc(-c2ccc3[nH]nc(-c4cc5ccccc5[nH]4)c3c2)c1` [Compound 256, 3-(1H-Indol-2-yl)-5-(pyridin-3-yl)-1H-indazole] the same measures were 10 nM, 10 nM and 162%.
For `Fc1ccc(-c2cccc3[nH]c(-c4n[nH]c5ccc(-c6cncc(CN7CCCC7)c6)cc45)cc23)cc1` [Compound 42, 3-(4-(4-Fluorophenyl)-1H-indol-2-yl)-5-(5-(pyrrolidin-1-ylmethyl)pyridin-3-yl)-1H-indazole], in the test on IL-6, the EC50 is > 10000 nM and the inhibition at 10 µM amounted to 47.8%. For the same compound, in test [1], the EC50 amounted to 30 nM and the Emax came to 197%.
